Test results taken from patent publication US20120016119A1, “NOVEL PYRROLO(2,3-d)PYRIMIDINE COMPOUND” (priority 2009, published 2012).

How the values were obtained:
human GPR119 = target: T1, human GPR119 (Homo sapiens, UniProt Q8TDV5); experiment: GPR119 agonistic activity: cAMP production in human GPR119-expressed CHO cells (HTRF cAMP kit); format: cell-based; settings: human GPR119-expressed CHO cells (L8-18), 37° C. for 30 minutes, 500 μM IBMX
T1 construct: expressed in transfected cells; host or cells: CHO cells (LM-3 mock cells carrying luciferase reporter pLG3-CRE6-CRE-VIP); resulting line L8-18
T1 sequence (Q8TDV5 1-335): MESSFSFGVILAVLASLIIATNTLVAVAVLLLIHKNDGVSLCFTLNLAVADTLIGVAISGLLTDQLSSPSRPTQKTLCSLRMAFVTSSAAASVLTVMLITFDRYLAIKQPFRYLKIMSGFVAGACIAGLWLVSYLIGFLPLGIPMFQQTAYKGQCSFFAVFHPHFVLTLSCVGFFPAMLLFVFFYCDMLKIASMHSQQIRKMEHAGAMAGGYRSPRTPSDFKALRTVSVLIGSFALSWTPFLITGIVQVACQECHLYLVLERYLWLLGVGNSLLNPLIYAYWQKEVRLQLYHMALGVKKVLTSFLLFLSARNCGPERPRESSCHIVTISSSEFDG
Description: The present experiment is directed to evaluate GPR119 agonistic activity (in vitro) of test compounds by adding the compounds to human GPR119-expressed CHO cells to determine cAMP production of the cells.
Human GPR119-expressed CHO cells (L8-18) were prepared by introducing an expression vector pMSF1-GPR119 (Geneticin-resistance) carrying human GPR119 genes into CHO cells (LM-3; Mock cells) wherein lusiferase expression vector pLG3-CRE6-CRE-VIP (Hygromycin B-resistance) were introduced according to the known method (The Journal of Biological Chemistry Vol. 274 (34), pp. 23940-23947).
Cryopreserved L8-18 cells were melted, and then suspended into 9-fold amounts of assay buffer and centrifuged (1000 rpm, 5 minutes) at room temperature. The supernatant was removed, and then the precipitated cells were resuspended into assay buffer (4 mL). Thereto was added assay buffer which contained IBMX (manufactured by Sigma, #17018-1G), and 7.5×10^4 cells/mL of cell suspension was prepared. The cell suspension was let stand at room temperature for 15 minutes, and then to each well of 96 half well white plate (manufactured by Corning Incorporated, #3693) were added the cell suspension (20 μL) and a solution of a test compound or AR231453 (5 μL; a total of 25 (final concentration: 1500 cells/well, 500 μM IBMX, 1% dimethylsulfoxide). The mixture was incubated at 37° C. for 30 minutes, and then to each well were added a 20-fold diluted solution (each 12.5 μL/well) of cAMP-d2 and Anti cAMP-Cryptate of HTRF cAMP kit (manufactured by Cisbio, #62AM4PEC). The mixture was stirred, and then was let stand for 1 hour under light shielding. A fluorescence intensity was measured by time-resolved fluorescence mode (Ex: 320 nm, Em: 665 nm, 620 nm) of Microplate Reader (ARVO or SpectraMax M5e). In ARVO, Ratios [Ratio=(665 nm/620 nm)×10^4)] of cAMP-d2 to Anti cAMP-Cryptate were calculated from the resulting fluorescence intensity, and cAMP concentrations of each well were calculated from cAMP standard curve prepared by the Ratios and GraphPad Prism. In SpectraMax M5e, cAMP concentrations of each well were calculated on the basis of a standard curve prepared by the resulting fluorescence intensity and Softmax Pro.
EC50 of test compounds were calculated by GraphPad Prism.

C57BL/6N male mice = experiment: Inhibitory effect on increased blood glucose after oral glucose load in fasted mice; format: in vivo; settings: one hour before glucose load (3 g/kg, p.o.), C57BL/6N male mice fasted 21 hours
Description: C57BL/6N male mice was fasted for 21 hours, and then a stratified randomization allocation was carried out by EXSUS Ver7.6 NP (Arm Systex Co., Ltd.) based on body weights (n=8). Vehicle (solvent: 0.1% Tween 80/0.5% hydroxypropyl methylcellulose) (control group) or a suspended solution of a test compound in the vehicle (test compound group) was orally administered to the mice, and a glucose load (3 g/kg, p.o.) was carried out one hour after administration of a test compound. Blood samplings from the test mice were carried out at each time point of just before administration of drug (−60 min), immediately before glucose load (0 min), 30 minutes (30 min), 60 minutes (60 min) and 120 minutes (120 min) after glucose load. Blood glucose levels at each time point were measured by glucose CII-Test Wako (manufactured by Wako Pure Chemical Industries, Ltd.), AUC (0-120 min) was calculated in each administration group on the basis of the measured value, and evaluated by time-dependent variance analysis and Student's t-Test using EXSUS Ver7.6NP (Arm Systex Co., Ltd.).
An inhibitory effect on increased blood glucose of each test compound (A ratio value of AUC (0-120 min) of the test compound group in case that AUC (0-120 min) of the control group is 100) is shown in the following Table 36.

Row | Structure (SMILES) | EC50 (human GPR119) | Inhibitory Effect on Increased Blood Glucose (ratio value of AUC (0-120 min) of test compound group, control group = 100) (C57BL/6N male mice; 3 mg/kg orally) | other results
1 | CN(C)C(=O)c1ccc(Nc2ncnc3c2c(F)cn3C2CCN(C(=O)OC(C)(C)C)CC2)c(F)c1 [Example Compound 1, tert-butyl 4-[4-(4-dimethylcarbamoyl-2-fluorophenylamino)-5-fluoropyrrolo[2,3-d]pyrimidin-7-yl]piperidine-1-carboxylate] | < 1000 nM | – | –
2 | CC(C)OC(=O)N1CCC(n2cc(Cl)c3c(Nc4ncc(C(=O)N(C)C)cc4Cl)ncnc32)CC1 [Example Compound 2, isopropyl 4-[5-chloro-4-(3-chloro-5-dimethylcarbamoylpyridin-2-ylamino)pyrrolo[2,3-d]pyrimidin-7-yl]piperidine-1-carboxylate] | 1000 to 3000 nM | – | –
3 | CC(C)(C)OC(=O)N1CCC(n2cc(F)c3c(Oc4ccc(S(C)(=O)=O)cc4F)ncnc32)CC1 [Example Compound 3, tert-butyl 4-[5-fluoro-4-(2-fluoro-4-mesylphenoxy)pyrrolo[2,3-d]pyrimidin-7-yl]piperidine-1-carboxylate] | < 1000 nM | – | –
4 | CCc1cnc(N2CCC(n3cc(F)c4c(Nc5ccc(C(=O)N(C)C)cc5F)ncnc43)CC2)nc1 [Example Compound 6, 4-[7-[1-(5-ethylpyrimidin-2-yl)piperidin-4-yl]-5-fluoro-7H-pyrrolo[2,3-d]pyrimidin-4-ylamino]-3-fluoro-N,N-dimethylbenzamide] | – | – | Inhibitory Effect on Increased Blood Glucose (ratio value of AUC (0-120 min) of test compound group, control group = 100) (C57BL/6N male mice; 10 mg/kg orally): 85
5 | CCc1cnc(N2CCC(n3cc(F)c4c(Nc5ccc(C(=O)N(C)CCO)cc5F)ncnc43)CC2)nc1 [Example Compound 8, 4-[7-[1-(5-ethylpyrimidin-2-yl)piperidin-4-yl]-5-fluoro-7H-pyrrolo[2,3-d]pyrimidin-4-ylamino]-3-fluoro-N-(2-hydroxyethyl)-N-methylbenzamide] | – | – | Inhibitory Effect on Increased Blood Glucose (ratio value of AUC (0-120 min) of test compound group, control group = 100) (C57BL/6N male mice; 10 mg/kg orally): 83
6 | CC(C)(C)OC(=O)N1CCC(n2cc(F)c3c(Nc4ccc(S(C)(=O)=O)cc4Cl)ncnc32)CC1 [Example Compound 13] | < 1000 nM | – | –
7 | CC(C)(C)OC(=O)N1CCC(n2cc(F)c3c(Nc4ccc(-n5cncn5)cc4F)ncnc32)CC1 [Example Compound 15] | < 1000 nM | – | –
8 | CN(C)C(=O)c1ccc(Nc2ncnc3c2c(F)cn3C2CCN(C(=O)OC(C)(C)C)CC2)c(Cl)c1 [Example Compound 17] | < 1000 nM | – | –
9 | CC(C)c1noc(N2CCC(n3cc(F)c4c(Nc5ccc(C(=O)N(C)C)cc5Cl)ncnc43)CC2)n1 [Example Compound 21] | < 1000 nM | – | –
10 | CCc1cnc(N2CCC(n3cc(F)c4c(Nc5ccc(C(=O)N(C)C)cc5Cl)ncnc43)CC2)nc1 [Example Compound 29] | < 1000 nM | – | Inhibitory Effect on Increased Blood Glucose (ratio value of AUC (0-120 min) of test compound group, control group = 100) (C57BL/6N male mice; 10 mg/kg orally): 88
11 | CN(C)C(=O)c1ccc(Nc2ncnc3c2c(F)cn3C2CCN(c3ncc(C(F)(F)F)cn3)CC2)c(F)c1 [Example Compound 54] | < 1000 nM | – | –
12 | CC(C)Oc1cnc(N2CCC(n3cc(F)c4c(Nc5ccc(C(=O)N(C)C)cc5F)ncnc43)CC2)nc1 [Example Compound 56] | < 1000 nM | – | –
13 | CCc1cnc(N2CCC(n3cc(F)c4c(Nc5ccc(C(=O)N6CC[C@@H](O)C6)cc5F)ncnc43)CC2)nc1 [Example Compound 61] | < 1000 nM | – | Inhibitory Effect on Increased Blood Glucose (ratio value of AUC (0-120 min) of test compound group, control group = 100) (C57BL/6N male mice; 10 mg/kg orally): 85
14 | CCc1cnc(N2CCC(n3cc(F)c4c(Nc5ccc(C(=O)N6CC[C@H](O)C6)cc5F)ncnc43)CC2)nc1 [Example Compound 62] | < 1000 nM | – | Inhibitory Effect on Increased Blood Glucose (ratio value of AUC (0-120 min) of test compound group, control group = 100) (C57BL/6N male mice; 10 mg/kg orally): 86
15 | CCc1cnc(N2CCC(n3cc(F)c4c(Nc5ccc(S(C)(=O)=O)cc5F)ncnc43)CC2)nc1 [Example Compound 77] | < 1000 nM | – | –
16 | CC(C)c1nc(N2CCC(n3cc(F)c4c(Nc5ccc(C(=O)N(C)CCO)cc5F)ncnc43)CC2)no1 [Example Compound 115] | – | 92 | –

Row | Structure (SMILES) | EC50 (human GPR119) | Inhibitory Effect on Increased Blood Glucose (ratio value of AUC (0-120 min) of test compound group, control group = 100) (C57BL/6N male mice; 3 mg/kg orally) | other results
17 | CCCc1cnc(N2CCC(n3cc(F)c4c(Nc5ccc(C(=O)N6CC[C@@H](O)C6)cc5F)ncnc43)CC2)nc1 [Example Compound 121] | – | 82 | –
18 | CC(C)c1cnc(N2CCC(n3cc(F)c4c(Nc5ccc(C(=O)N(C)CCO)cc5F)ncnc43)CC2)nc1 [Example Compound 124] | – | 86 | –
19 | O=C(c1ccc(Nc2ncnc3c2c(F)cn3C2CCN(c3ncc(C4CC4)cn3)CC2)c(F)c1)N1CC[C@@H](O)C1 [Example Compound 128] | – | 83 | –
20 | CN(CCO)C(=O)c1ccc(Nc2ncnc3c2c(F)cn3C2CCN(c3ncc(C4CC4)cn3)CC2)c(F)c1 [Example Compound 129] | – | 88 | –
21 | CC(C)c1cnc(N2CCC(n3cc(F)c4c(Nc5ccc(C(=O)N6CCC[C@@H](O)C6)cc5F)ncnc43)CC2)nc1 [Example Compound 132] | – | 90 | –
22 | CN(CCO)C(=O)c1ccc(Nc2ncnc3c2c(F)cn3C2CCN(c3ncc(Cl)cn3)CC2)c(F)c1 [Example Compound 134] | – | 82 | –
23 | CN(CCCO)C(=O)c1ccc(Nc2ncnc3c2c(F)cn3C2CCN(c3ncc(C4CC4)cn3)CC2)c(F)c1 [Example Compound 138] | < 1000 nM | – | –
24 | CC(C)Oc1cnc(N2CCC(n3cc(F)c4c(Nc5ccc(C(=O)N(C)CCCO)cc5F)ncnc43)CC2)nc1 [Example Compound 154] | – | 86 | –
25 | CC(C)c1noc(N2CCC(n3cc(F)c4c(Nc5ccc(C(=O)N6CCCC6)cc5F)ncnc43)CC2)n1 [Example Compound 161] | – | 87 | –
26 | CC(C)OC(=O)N1CCC(n2cc(F)c3c(Nc4ccc(C(=O)N5CCCC5)cc4F)ncnc32)CC1 [Example Compound 163] | – | 86 | –
27 | CCc1cnc(N2CCC(n3cc(F)c4c(Nc5cc(F)c(C(=O)N(C)CCO)cc5F)ncnc43)CC2)nc1 [Example Compound 164] | < 1000 nM | – | –
28 | O=C(c1ccc(Nc2ncnc3c2c(F)cn3C2CCN(c3noc(C(F)(F)F)n3)CC2)c(F)c1)N1CC[C@@H](O)C1 [Example Compound 178] | – | – | Inhibitory Effect on Increased Blood Glucose (ratio value of AUC (0-120 min) of test compound group, control group = 100) (C57BL/6N male mice; 1 mg/kg orally): 88
29 | CN(CCCO)C(=O)c1ccc(Nc2ncnc3c2c(F)cn3C2CCN(c3noc(C(F)(F)F)n3)CC2)c(F)c1 [Example Compound 184] | < 1000 nM | – | –
30 | CCc1cnc(N2CCC(n3cc(F)c4c(Nc5ccc(C(=O)N6CC[C@@H](O)C6)cc5Cl)ncnc43)CC2)nc1 [Example Compound 185] | – | – | Inhibitory Effect on Increased Blood Glucose (ratio value of AUC (0-120 min) of test compound group, control group = 100) (C57BL/6N male mice; 1 mg/kg orally): 89
31 | CN(CCO)C(=O)c1ccc(Nc2ncnc3c2c(F)cn3C2CCN(c3ncc(OC(F)F)cn3)CC2)c(F)c1 [Example Compound 193] | < 1000 nM | – | –
